Here are results for 21 compounds from patent US12208088B2 (Genentech, Inc., priority 2018, dated 2025).

The target in the assay is HPK1 (Homo sapiens (Human), UniProt Q92918). Briefly: HPK1 Lantha binding assay ("Lanth"). Conditions: binding assays; Morrison Ki fit. The protocol: Example B2: HPK1 Lantha Binding Assay (“Lanth”)
Procedure: I. Compound Dilution:
The compounds to be tested were diluted by preparing 12.5 uL/well of 5 mM compound (100×) in columns 2 and 13 and 10 ul/well of DMSO in columns 3-12, 14-23, and wells A1-H1 and I24-P24 of the compound plate using a Bravo liquid handling platform. For the reference compound, the top concentration was 1 mM. To the plate was added 10 ul 2 mM staurosporine in wells J1-P1 and A24-H24. A 11 point 5-fold compound serial dilution was performed using the Bravo liquid handling platform. From the plate were transferred 2.5 ul of the solutions from column 2 and column 13 to the 10 ul of DMSO in columns 3 and 14 & so on. The compound plate was centrifuged at 2500 rpm for 1 min. From the compound plate was transferred 80 nl of the compounds into an assay plate using the Echo liquid handler system. One compound plate makes two assay plates. Each assay plate is sealed and stored in an N2 cabinet.
The following assay concentrations and times were used: 2 nM HPK1, 2 nM Eu-Anti-GST Ab, and 15 nM Tracer222, with 60 min incubation time.
III. HPK Lantha Binding Assay:
For the binding assay, 4 ul 2×HPK1 and Eu-anti-GST antibody were added to each well of the assay plate using a Multidrop reagent dispenser. The solutions were incubated in a 23 C incubator for 1 h. To each well of the assay plate was added 4 ul 2× Tracer-222 using a Multidrop reagent dispenser. The solutions were again incubated in a 23 C incubator for 1 h. The results of the assay were read using an Envision plate reader with the following parameters: TR_FRET, 340 ex/615 and 665em; 100 usec Delay; and 200 usec integration.
Compound Ki was analyzed using Morrison ki fit model in XL-fit • a. fit=(1−((((E+x)+(Ki*(1+(S/Kd))))−(((((E+x)+(Ki*(1+(S/Kd))))^2)−((4*E)*x))^0.5))/(2*E))) • res=(y−fit) • b. Parameters: • E=enzyme concentration • S=Tracer222 concentration, Kd=Tracer222 Kd • All measurements reported using the same units (uM)
Exemplary compounds were tested in the binding assays.

HPK1, sequence (Q92918 1-346 limits assumed): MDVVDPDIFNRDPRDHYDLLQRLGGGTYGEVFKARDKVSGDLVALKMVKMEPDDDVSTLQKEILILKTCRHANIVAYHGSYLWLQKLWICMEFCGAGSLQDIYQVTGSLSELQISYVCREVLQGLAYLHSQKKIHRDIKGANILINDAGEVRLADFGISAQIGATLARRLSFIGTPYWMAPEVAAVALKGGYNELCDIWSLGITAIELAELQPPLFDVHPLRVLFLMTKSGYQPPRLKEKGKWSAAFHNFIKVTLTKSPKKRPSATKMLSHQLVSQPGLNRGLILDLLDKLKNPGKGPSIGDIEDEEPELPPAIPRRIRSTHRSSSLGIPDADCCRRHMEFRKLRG

For orientation: Ki means a dissociation constant, usually derived from enzyme kinetics or from competition with a known ligand. The low end stands for a stronger hold on the target, the high end for a looser hold on the target. Take `CN(C)C(=O)c1c(N)ccc(-c2cnc3c(c2Cl)[C@]2(CC[C@H](C(=O)NCCO)C2)CN3)c1F` (relative stereo) [Compound 106a, (1R,3S)-5′-(4-Amino-3-(dimethylcarbamoyl)-2-fluorophenyl)-4′-chloro-N-(2-hydroxyethyl)-1′,2′-dihydrospiro[cyclopentane-1,3′-pyrrolo[2,3-b]pyridine]-3-carboxamide]: the affinity, expressed as Ki, was 0.0236 µM.
Then `Cc1noc([C@H]2CC[C@@]3(CNc4ncc(-c5ccc(N)c(C(=O)N(C)C)c5F)c(Cl)c43)C2)n1` (relative stereo) [Compound 108a, 6-Amino-3-((1R,3S)-4′-chloro-3-(3-methyl-1,2,4-oxadiazol-5-yl)-1′,2′-dihydrospiro[cyclopentane-1,3′-pyrrolo[2,3-b]pyridin]-5′-yl)-2-fluoro-N,N-dimethylbenzamide], with 0.00827 µM; and `CN(C)C(=O)c1c(N)ccc(-c2cnc3c(c2Cl)[C@]2(CC[C@@](O)(CC#N)C2)CN3)c1F` (relative stereo) [Compound 109c, 6-Amino-3-((1R,3S)-4′-chloro-3-(cyanomethyl)-3-hydroxy-1′,2′-dihydrospiro[cyclopentane-1,3′-pyrrolo[2,3-b]pyridin]-5′-yl)-2-fluoro-N,N-dimethylbenzamide], with 0.0325 µM.
With `Cc1cnn([C@H]2CC[C@@]3(CNc4ncc(-c5ccc(N)c(C(=O)N(C)C)c5F)c(Cl)c43)C2)n1` (relative stereo) [Compound 114a, 6-Amino-3-((1R,3S)-4′-chloro-3-(4-methyl-2H-1,2,3-triazol-2-yl)-1′,2′-dihydrospiro[cyclopentane-1,3′-pyrrolo[2,3-b]pyridin]-5′-yl)-2-fluoro-N,N-dimethylbenzamide] the figure was 0.00284 µM.
With `CN(C)C(=O)c1c(N)ccc(-c2cnc3c(c2Cl)[C@]2(CC[C@H](N4CCNC4=O)C2)CN3)c1F` (relative stereo) [Compound 115a, 6-Amino-3-((1R,3S)-4′-chloro-3-(2-oxoimidazolidin-1-yl)-1′,2′-dihydrospiro[cyclopentane-1,3′-pyrrolo[2,3-b]pyridin]-5′-yl)-2-fluoro-N,N-dimethylbenzamide] the figure was 0.023 µM.
`CN(C)C(=O)c1c(N)ccc(-c2cnc3c(c2Cl)[C@]2(CC[C@@](O)(Cn4cncn4)C2)CN3)c1F` (relative stereo) [Compound 116a] yielded an inhibitory constant (Ki) of 0.153 µM.
Then `CN(C)C(=O)c1c(N)ccc(-c2cnc3c(c2Cl)[C@]2(CC[C@@](O)(Cn4ccnc4)C2)CN3)c1F` (relative stereo) [Compound 117a, 3-((1R,3S)-3-((1H-Imidazol-1-yl)methyl)-4′-chloro-3-hydroxy-1′,2′-dihydrospiro[cyclopentane-1,3′-pyrrolo[2,3-b]pyridin]-5′-yl)-6-amino-2-fluoro-N, N-dimethylbenzamide], with 0.247 µM; and `CN(C)C(=O)c1c(N)ccc(-c2cnc3c(c2Cl)[C@]2(CC[C@H](n4cnc(N)n4)C2)CN3)c1F` (relative stereo) [Compound 119a, 6-Amino-3-((1R,3S)-3-(3-amino-1H-1,2,4-triazol-1-yl)-4′-chloro-1′,2′-dihydrospiro[cyclopentane-1,3′-pyrrolo[2,3-b]pyridin]-5′-yl)-2-fluoro-N,N-dimethylbenzamide], with 0.0768 µM.
With `CN(C)C(=O)c1c(N)ccc(-c2cnc3c(c2Cl)[C@]2(CC[C@H](N4CCOCC4)C2)CN3)c1F` (relative stereo) [Compound 120a, 6-Amino-3-((1R,3S)-4′-chloro-3-morpholino-1′,2′-dihydrospiro[cyclopentane-1,3′-pyrrolo[2,3-b]pyridin]-5′-yl)-2-fluoro-N,N-dimethylbenzamide] the figure was 0.479 µM; with `CN(C)C(=O)c1c(N)ccc(-c2cnc3c(c2Cl)[C@]2(CC[C@H](N4CCCC4)C2)CN3)c1F` (relative stereo) [Compound 121a, 6-Amino-3-((1R,3S)-4′-chloro-3-(pyrrolidin-1-yl)-1′,2′-dihydrospiro[cyclopentane-1,3′-pyrrolo[2,3-b]pyridin]-5′-yl)-2-fluoro-N,N-dimethylbenzamide], 0.381 µM.
With `CN(C)C(=O)c1c(N)ccc(-c2cnc3c(c2Cl)[C@]2(CC[C@H](N4CCOC4=O)C2)CN3)c1F` (relative stereo) [Compound 124a, 6-Amino-3-((1R,3S)-4′-chloro-3-(2-oxooxazolidin-3-yl)-1′,2′-dihydrospiro[cyclopentane-1,3′-pyrrolo[2,3-b]pyridin]-5′-yl)-2-fluoro-N,N-dimethylbenzamide] the figure was 0.035 µM.
On to `Cc1cnn([C@H]2CC[C@@]3(CNc4ncc(-c5ccc(N)c(C(=O)N(C)C)c5F)c(Cl)c43)C2)c1` (relative stereo) [Compound 125a, 6-Amino-3-((1R,3S)-4′-chloro-3-(4-methyl-1H-pyrazol-1-yl)-1′,2′-dihydrospiro[cyclopentane-1,3′-pyrrolo[2,3-b]pyridin]-5′-yl)-2-fluoro-N,N-dimethylbenzamide], for which the inhibition constant (Ki) is 0.00356 µM.
With `CN(C)C(=O)c1c(N)ccc(-c2cnc3c(c2Cl)[C@]2(CC[C@H](n4cccn4)C2)CN3)c1F` (relative stereo) [Compound 126a, 6-Amino-3-((1R,3S)-4′-chloro-3-(1H-pyrazol-1-yl)-1′,2′-dihydrospiro[cyclopentane-1,3′-pyrrolo[2,3-b]pyridin]-5′-yl)-2-fluoro-N,N-dimethylbenzamide] the figure was 0.0185 µM; with `CN(C)C(=O)c1c(N)ccc(-c2cnc3c(c2Cl)[C@]2(CC[C@H](CN)C2)CN3)c1F` (relative stereo) [Compound 127a, 6-Amino-3-((1R,3S)-3-(aminomethyl)-4′-chloro-1′,2′-dihydrospiro[cyclopentane-1,3′-pyrrolo[2,3-b]pyridin]-5′-yl)-2-fluoro-N,N-dimethylbenzamide], 0.165 µM.
With `CN(C)C(=O)c1c(N)ccc(-c2cnc3c(c2Cl)[C@]2(CC[C@](C)(C(N)=O)C2)CN3)c1F` (relative stereo) [Compound 132a, (1R,3S)-5′-(4-Amino-3-(dimethylcarbamoyl)-2-fluorophenyl)-4′-chloro-3-methyl-1′,2′-dihydrospiro[cyclopentane-1,3′-pyrrolo[2,3-b]pyridine]-3-carboxamide] the figure was 0.00208 µM; with `CN(C)C(=O)c1c(N)ccc(-c2cnc3c(c2Cl)[C@]2(CC[C@H](n4ccc(N)n4)C2)CN3)c1F` (relative stereo) [Compound 133a, 6-Amino-3-((1R,3S)-3-(3-amino-1H-pyrazol-1-yl)-4′-chloro-1′,2′-dihydrospiro[cyclopentane-1,3′-pyrrolo[2,3-b]pyridin]-5′-yl)-2-fluoro-N,N-dimethylbenzamide], 0.034 µM; with `CN(C)C(=O)c1c(N)ccc(-c2cnc3c(c2Cl)[C@]2(CC[C@H](n4nccc4N)C2)CN3)c1F` (relative stereo) [Compound 134a, 6-Amino-3-((1R,3S)-3-(5-amino-1H-pyrazol-1-yl)-4′-chloro-1′,2′-dihydrospiro[cyclopentane-1,3′-pyrrolo[2,3-b]pyridin]-5′-yl)-2-fluoro-N,N-dimethylbenzamide], 0.0161 µM.
Compound `CN(C)C(=O)c1c(N)ccc(-c2cnc3c(c2Cl)[C@]2(CC[C@H](CC(N)=O)C2)CN3)c1F` (relative stereo) [Compound 135a, 6-Amino-3-((1R,3S)-3-(2-amino-2-oxoethyl)-4′-chloro-1′,2′-dihydrospiro[cyclopentane-1,3′-pyrrolo[2,3-b]pyridin]-5′-yl)-2-fluoro-N,N-dimethylbenzamide] gave a Ki of 0.00716 µM.
Then `CC[C@H]1C[C@@]12CNc1ncc(-c3ccc(N)c(C(=O)N(C)C)c3F)c(Cl)c12` (relative stereo) [Compound 150a, 6-Amino-3-((1R,2S)-4′-chloro-2-ethyl-1′,2′-dihydrospiro[cyclopropane-1,3′-pyrrolo[2,3-b]pyridin]-5′-yl)-2-fluoro-N,N-dimethylbenzamide], with 0.0033 µM.
Then `CC[C@@H]1C[C@@]12CNc1ncc(-c3ccc(N)c(C(=O)N(C)C)c3F)c(Cl)c12` (relative stereo) [Compound 150c, 6-Amino-3-((1R,2R)-4′-chloro-2-ethyl-1′,2′-dihydrospiro[cyclopropane-1,3′-pyrrolo[2,3-b]pyridin]-5′-yl)-2-fluoro-N,N-dimethylbenzamide], with 0.00251 µM; and `CN(C)C(=O)c1c(N)ccc(-c2cnc3c(c2Cl)[C@]2(CC[C@@](C)(C#N)C2)CN3)c1F` (relative stereo) [Compound 151a, 6-Amino-3-((1R,3R)-4′-chloro-3-cyano-3-methyl-1′,2′-dihydrospiro[cyclopentane-1,3′-pyrrolo[2,3-b]pyridin]-5′-yl)-2-fluoro-N,N-dimethylbenzamide], with 0.042 µM.
